# The source made the active and inactive calls.
# Assays:
# [1] = viability of HCT116 lacking mutant beta-catenin – cell-based, human colon tumor, dose response (AID 1045); type: functional;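 further: HCT116 colon tumor cells with beta catenin knocked out; cells exposed to compound for 60 hours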
# [2] = viability of PTEN-deleted HCT116 cells – cell-based, HCT116 PTEN knockout, dose response (AID 1047); type: functional;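 further: HCT116 colon tumor cells with PTEN knocked out; cells exposed to compound for 60 hours before readout; potency for loss of cell viability measured by luminescence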
# Cytochrome P450 3A4 = Cytochrome P450 3A4 (Homo sapiens, UniProt P08684);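 further: CYP3A4 tested as one member of a cytochrome P450 panel screen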
# Chain of Cytochrome P450 3A4 (P08684 whole entry): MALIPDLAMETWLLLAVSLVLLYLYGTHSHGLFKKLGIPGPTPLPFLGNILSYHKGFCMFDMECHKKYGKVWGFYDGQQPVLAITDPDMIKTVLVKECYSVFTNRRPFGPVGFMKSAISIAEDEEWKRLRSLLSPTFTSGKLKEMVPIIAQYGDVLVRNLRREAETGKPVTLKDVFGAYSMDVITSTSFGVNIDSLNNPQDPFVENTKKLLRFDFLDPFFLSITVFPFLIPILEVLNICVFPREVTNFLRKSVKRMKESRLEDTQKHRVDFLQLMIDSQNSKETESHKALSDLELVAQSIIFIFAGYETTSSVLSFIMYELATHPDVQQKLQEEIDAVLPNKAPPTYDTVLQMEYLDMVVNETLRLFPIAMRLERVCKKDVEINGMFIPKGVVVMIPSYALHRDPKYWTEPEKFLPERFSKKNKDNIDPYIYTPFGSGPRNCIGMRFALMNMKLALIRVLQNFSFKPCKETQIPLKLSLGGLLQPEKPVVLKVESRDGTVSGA
# [3] = viability of uninfected HEp-2 cells – cell-based, HTS, cytotoxicity control for RSV inhibitor project, dose response (AID 2410); type: functional; settings: human respiratory syncytial virus
# Cytochrome P450 1A2 = target: T1, Cytochrome P450 1A2 (Homo sapiens, UniProt P05177);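 further: PubChem cytochrome P450 panel assay, CYP1A2 panel member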
# T1 sequence (P05177 whole entry): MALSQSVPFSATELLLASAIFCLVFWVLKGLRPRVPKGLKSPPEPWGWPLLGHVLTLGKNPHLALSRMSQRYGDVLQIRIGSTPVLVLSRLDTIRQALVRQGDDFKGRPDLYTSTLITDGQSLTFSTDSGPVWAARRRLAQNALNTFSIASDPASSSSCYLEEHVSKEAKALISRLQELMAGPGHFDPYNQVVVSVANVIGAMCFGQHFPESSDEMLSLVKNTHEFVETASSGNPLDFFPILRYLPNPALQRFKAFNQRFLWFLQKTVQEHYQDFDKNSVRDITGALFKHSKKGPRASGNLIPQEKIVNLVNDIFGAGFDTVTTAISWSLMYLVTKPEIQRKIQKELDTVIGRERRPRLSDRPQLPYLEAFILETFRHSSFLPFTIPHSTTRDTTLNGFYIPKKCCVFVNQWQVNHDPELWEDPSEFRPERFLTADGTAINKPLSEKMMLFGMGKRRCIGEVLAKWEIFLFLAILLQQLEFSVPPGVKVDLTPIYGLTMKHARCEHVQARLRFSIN
# H9c2 = experiment: cells; type: functional, cell-based; settings: Rattus norvegicus, H9c2, Myocardium;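 further: confirmatory concentration-response retest of ultra-high-throughput screening hits for modulation of myocardial damage; cell death induced by hydrogen peroxide oxidative stress; compound pretreatment for 60 min then peroxide exposure for 2 h; potency is for protecting the cells against peroxide damage rather than for killing them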
# [4] = target: T2, Corticotropin-releasing factor receptor 2/Corticotropin-releasing factor-binding protein (Homo sapiens, UniProt P24387+Q13324); experiment: activators of CRF receptor 2 with binding protein – uHTS hits, confirmation (AID 602473); type: functional; settings: read-out: EC50_Mean
# T2 sequence (Q13324 whole entry): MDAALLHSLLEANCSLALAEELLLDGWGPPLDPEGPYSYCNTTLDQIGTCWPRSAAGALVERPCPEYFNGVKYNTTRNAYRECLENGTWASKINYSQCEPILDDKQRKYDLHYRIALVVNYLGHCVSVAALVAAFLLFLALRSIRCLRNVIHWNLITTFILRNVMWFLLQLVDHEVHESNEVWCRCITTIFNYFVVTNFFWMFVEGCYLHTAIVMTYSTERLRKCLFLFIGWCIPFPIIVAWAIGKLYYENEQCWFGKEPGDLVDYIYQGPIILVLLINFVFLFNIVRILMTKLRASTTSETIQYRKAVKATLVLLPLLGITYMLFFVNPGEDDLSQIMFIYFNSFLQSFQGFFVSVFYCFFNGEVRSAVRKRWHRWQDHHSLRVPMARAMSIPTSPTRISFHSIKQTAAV
# T2 sequence (P24387 whole entry): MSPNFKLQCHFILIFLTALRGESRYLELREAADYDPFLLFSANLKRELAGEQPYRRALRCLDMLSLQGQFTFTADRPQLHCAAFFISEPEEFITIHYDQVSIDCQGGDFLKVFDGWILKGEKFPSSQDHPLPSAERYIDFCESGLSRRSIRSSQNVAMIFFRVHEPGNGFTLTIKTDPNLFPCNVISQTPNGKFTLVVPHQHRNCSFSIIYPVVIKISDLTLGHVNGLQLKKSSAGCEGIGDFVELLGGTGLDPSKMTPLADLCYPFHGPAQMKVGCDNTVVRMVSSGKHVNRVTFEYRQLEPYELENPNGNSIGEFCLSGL
# [5] = NIH3T3 cell viability loss – ATP luminescence, mouse fibroblasts, counter-screen, dose response (AID 2010); type: functional, cell-based;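 further: cells exposed to compound for about 90 hours before reading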
# [6] = Trypanosoma cruzi growth suppression in host cells – NIH3T3 host cells, beta-gal luminescence, confirmation (AID 2044); type: functional, cell-based;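 further: intracellular parasites grown in NIH/3T3 mouse fibroblasts as host cells; luminescent beta-galactosidase reporter signal from transgenic T. cruzi replicating inside host cells; inhibitors lower the luminescence signal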
# [7] = tested on: Streptococcus sp. 'group A'; experiment: Streptococcus pyogenes SK(-)GAS viability under kanamycin – luminescence, BacTiterGlo, confirmation, counter-screen for streptokinase expression inhibitor project, dose response (AID 1900); type: functional, organism-based
# Streptococcus = experiment: GAS UMAA2166 growth inhibition – luminescence, BacTiterGlo, counter-screen for streptokinase expression inhibitor project, dose response (AID 1915); type: functional, organism-based;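 further: potency for reduction of bacterial viability or growth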
# [8] = Luminescence Cell-Based Dose Response HTS to Identify Activators of Luciferase Translation or Activity in H4 […] Cells. [Related pubchem assays: 1829 (Project Summary), 1814 (Primary HTS)]; type: functional
# H4 = experiment: Luminescence Cell-Based Dose Response HTS to Identify Activators of 5'UTR Stem-Loop Driven Prion Protein mRNA Translation in H4 Neuroglioblastoma Cells. [Related pubchem assays: 1829 (Project Summary), 1814 (Primary HTS)]; type: functional; settings: Homo sapiens
structure (smiles),measurement,setting,value
COC(=O)c1sccc1NC(=O)/C=C/c1ccc(Cl)cc1Cl,EC50,[1],51.4 µM (active)
same,EC50,[2],13.8 µM (active)
COc1ccc(-n2c(=O)c(-c3ccc(F)cc3)nc3cnc(OC)nc32)cc1,AC50,Cytochrome P450 3A4,15.8 µM (inconclusive)
CCCn1c(C(C)Nc2nc(-c3ccc(C)cc3)cs2)nc2ccccc21 (configuration not stated),CC50,[3],15.2 µM (active)
Cc1nc2nc(-c3ccccc3)nn2c(C)c1C,CC50,[3],39.4 µM (active)
C[C@@H](C(=O)Nc1ccc2ccccc2c1)[C@H]1C[C@]1(C)[C@H](NS(=O)(=O)c1ccc(-c2ccccc2)cc1)c1ccccc1,AC50,Cytochrome P450 1A2,15.8 µM (inconclusive)
CCN(CC)CCNC(=O)CCc1nnc(O)c2ccccc12,IC50,H9c2,> 79 µM (inactive)
O=c1[nH]c(=O)n(-c2ccccc2)c2c1C(C(F)(F)F)(C(F)(F)F)NC(CCC1CCCCC1)=N2,EC50,[4],7.07 µM (active)
O=C(O)c1[nH]c2c([N+](=O)[O-])cc([N+](=O)[O-])cc2c1C(=O)O,AC50,Cytochrome P450 1A2,0.126 µM (inconclusive)
Cc1c(NC(=O)c2cc3c(s2)-c2ccccc2OC3)cccc1[N+](=O)[O-],CC50,[3],6.43 µM (active)
N#CC1=C(N)Oc2c(c(=O)sc3ccccc23)C1c1cccnc1 (configuration not stated),EC50,[5],8.85 µM (active)
same,EC50,[6],0.536 µM (active)
NS(=O)(=O)c1ccc(/N=N\c2nc3c(S)ncnc3[nH]2)cc1,AC50,Cytochrome P450 1A2,6.31 µM (inconclusive)
COc1ccc2c(c1)OC[C@H]1[C@H]2N2C(=O)CN(Cc3ccc(F)cc3)C(=O)[C@@]2(C)[C@H]1c1ccccc1,CC50,[3],16.4 µM (active)
[O-][n+]1c(CN2CCCCC2)nc2cccc3c2c1-c1ccccc1-3,AC50,Cytochrome P450 3A4,3.16 µM (inconclusive)
O=C(c1ccc(COc2ccccc2Cl)o1)N1CCN(c2ccccc2)CC1,CC50,[3],13.4 µM (active)
Cc1cc(O)n2nc(Nc3cccc(Cl)c3)nc2n1,EC50,[4],> 53 µM (inactive)
COc1ccc2[nH]cc(C(=O)CN3CCCCC3)c2c1,EC50,[4],> 53 µM (inactive)
CCOc1ccccc1C(=O)Nc1cccc2cccnc12,CC50,[3],30.4 µM (active)
S=C(NC1CCCCC1)N1CCn2cccc2C1c1cccnc1 (configuration not stated),EC50,[5],> 60 µM (not active)
same,EC50,[6],0.379 µM (active)
O=[N+]([O-])c1cc([N+](=O)[O-])c2[nH]nc(-c3ccccc3)c2c1,EC50,[5],> 60 µM (not active)
same,EC50,[6],1.47 µM (active)
COc1ccccc1OCCCn1cc(C=O)c2ccccc21,CC50,[3],8.95 µM (active)
COc1cccc(-c2nnc(Nc3nc4c(F)cccc4s3)o2)c1,EC50,[7],0.767 µM (active)
same,EC50,Streptococcus,26.2 µM (active)
N=c1c2c(-c3ccccc3)c(-c3ccccc3)n(Cc3ccco3)c2ncn1CCN1CCOCC1,EC50,[1],8.19 µM (active)
same,EC50,[5],> 60 µM (not active)
same,EC50,[2],7.92 µM (active)
same,EC50,[6],1.53 µM (active)
COc1ccccc1NS(=O)(=O)c1cc(NC(=O)c2cccs2)ccc1N1CCCCC1,EC50,[5],> 30 µM (not active)
same,EC50,[6],1.23 µM (active)
CSCCC(NC(=O)c1ccco1)C(=O)OCc1cc([N+](=O)[O-])cc2c1OCOC2 (configuration not stated),EC50,[4],6.29 µM (active)
COc1cc(/C=C(\C#N)c2nc3ccccc3s2)ccc1OCC(=O)Nc1ccccc1,EC50,[1],560 µM (active)
same,EC50,[2],25.2 µM (active)
CN(C)CCCNc1c2c(nc3cc(-c4cccc(F)c4)nn13)CCC2,EC50,[5],> 60 µM (not active)
same,EC50,[6],0.181 µM (active)
O=C(Nc1ccc(Cl)cc1)N1CCCN(Cc2ccc(F)cc2)C1,EC50,[1],16.4 µM (active)
same,EC50,[2],17.2 µM (active)
NNC(=O)CNc1cccc(Br)c1,AC50,Cytochrome P450 3A4,2.51 µM (inconclusive)
COc1ccc(Cl)cc1NC(=O)CSc1nnc(Cc2cccn2C)n1-c1ccc(F)cc1,EC50,[1],72.9 µM (active)
same,EC50,[2],80.8 µM (active)
CN1CCN(c2ccc(-c3ccnn3C(=O)Nc3cccc(C(F)(F)F)c3)cc2)CC1,EC50,[8],3.08 µM (active)
same,EC50,H4,5.98 µM (active)
Nc1nc2nc(-c3ccccc3)cc(C(F)(F)F)c2s1,CC50,[3],35.5 µM (active)
CCn1cc(C(=O)NCc2ccc3c(c2)OCO3)c(=O)c2cc(F)c(N3CCN(C)CC3)cc21,EC50,[5],> 60 µM (not active)
same,EC50,[6],1.16 µM (active)
CCc1cccc2cc3c(N)c(C(=O)Nc4ccc(S(=O)(=O)N5CCCC5)cc4)sc3nc12,CC50,[3],38 µM (active)
CC(C(=O)NC1CCCC1)N(C(=O)Cn1nnc(-c2ccc(F)cc2)n1)c1ccccc1F (configuration not stated),IC50,H9c2,> 79 µM (inactive)
CN1/C(=C\C=C(/C#N)C(=O)Nc2ccccc2F)C(C)(C)c2ccccc21,EC50,[4],5.05 µM (active)
O=C(NCCNc1ccc([N+](=O)[O-])cc1)c1ccccc1Br,AC50,Cytochrome P450 3A4,28.2 µM (inconclusive)
O=C(Nc1ccc(N2CCN(C(=O)c3ccc(Cl)cc3)CC2)cc1)c1ccc(Br)o1,EC50,[5],> 60 µM (not active)
same,EC50,[6],4.09 µM (active)
C[C@@H](C1=C(CCN(C)C)Cc2ccccc21)c1ccccn1,AC50,Cytochrome P450 1A2,20 µM (inconclusive)
Oc1nc(-c2ccccc2)n(-c2ccc(Cl)cc2)n1,EC50,[4],> 53 µM (inactive)
COc1ccc(OC)c(C(=O)CSc2nnc(Cc3cccs3)n2CCc2ccccc2)c1,AC50,Cytochrome P450 1A2,7.08 µM (inconclusive)
same,AC50,Cytochrome P450 3A4,39.8 µM (inconclusive)
Cc1cccc(N2CCN(c3nc4ccc(Cl)cc4n4cnnc34)CC2)c1C,EC50,[1],20 µM (active)
same,EC50,[2],19.1 µM (active)
CCSc1nnc2nc3c(c(O)n12)C1(CCCC1)Cc1ccccc1-3,EC50,[7],8.43 µM (active)
same,EC50,Streptococcus,8.43 µM (active)
FC(F)(F)c1ccc2c(c1)nc(S)n2C1CC1,CC50,[3],34.1 µM (active)
Cc1cccc(Nc2nc(N3CCOCC3)nc(N3CCOCC3)n2)c1,EC50,[5],5.8 µM (active)
same,EC50,[6],0.465 µM (active)
O=C(Nc1ccc2nn(-c3ccccc3)nc2c1)c1cccnc1,CC50,[3],> 50 µM (active)
CC(C)(C)C(=O)Cn1c(=N)n(Cc2ccccc2Cl)c2ccccc21,EC50,[5],> 60 µM (not active)
same,EC50,[6],2.39 µM (active)
COc1ccc(CCNC(=O)COc2ccc(S(=O)(=O)NC3CCCCC3)cc2Cl)cc1,AC50,Cytochrome P450 1A2,25.1 µM (inconclusive)
Cc1ncc(C/N=C\c2ccc(Cl)cc2)c(N)n1,AC50,Cytochrome P450 1A2,5.01 µM (inconclusive)
Cc1ccc(NC(=O)N(Cc2ccco2)Cc2cc3cc(C)cc(C)c3nc2Cl)cc1,EC50,[5],> 30 µM (not active)
same,EC50,[6],2.78 µM (active)
C[C@]12CC[C@H](O)C[C@@H]1CC[C@H]1[C@H]2CC[C@]2(C)[C@H](C(=O)CO)CC[C@@H]12,AC50,Cytochrome P450 3A4,1 µM (inconclusive)
O=C(CCCN1C(=O)/C(=C/c2ccccc2Cl)SC1=S)N1CCCC1,CC50,[3],15.5 µM (active)
CCOc1ccc(CN2CCN(Cc3nc(C(C)C)cs3)CC2CCO)cc1 (configuration not stated),EC50,[5],> 60 µM (not active)
same,EC50,[6],0.845 µM (active)
COc1ccc(-c2nc3cnc(N(C)C)nc3n(C[C@H]3CCCO3)c2=O)cc1,AC50,Cytochrome P450 3A4,6.31 µM (inconclusive)
O=C(CCn1c(=S)[nH]c2ccccc2c1=O)NCCCN1CCOCC1,AC50,Cytochrome P450 3A4,7.08 µM (inconclusive)
COc1ccc(/C=N\NC(=O)O)cc1,AC50,Cytochrome P450 1A2,0.501 µM (inconclusive)
COc1ccc(-c2oc(/N=C/N3CCCC3)c(C#N)c2-c2ccc(OC)cc2)cc1,EC50,[5],> 60 µM (not active)
same,EC50,[6],1.75 µM (active)
Cc1c(/C=N\NC(=O)C2COc3ccc(C(C)(C)C)cc3O2)c2ccccc2n1C (configuration not stated),EC50,[5],> 60 µM (not active)
same,EC50,[6],2.25 µM (active)

# — ChEMBL document CHEMBL1201862, “PubChem BioAssay data set” (2004)
